Laboratory results as given in patent publication US7608619B2, “Substituted oxazole compounds with analgesic activity” (Gruenenthal GmbH, priority 2005, dated 2009).

Target: T1, human μ-opiate receptor (Homo sapiens, UniProt P35372)
T1 construct: purchased Nen company, Zaventem, Belgium RB-HOM; host or cells: CHO-K1 cells (membrane preparation)
Assay: Affinity for the human μ-opiate receptor ([3H]-naloxone displacement, SPA, CHO-K1 membrane preparation)
Conditions: test substance 1 μmole/l; displacement of 1 nmole/l [3H]-naloxone; percentage inhibition of the specific binding; read-out: μ-opioid receptor, % inhibition [1 μM]
How it was run: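 [3H]-naloxone (1 nmol/l) displacement by SPA with WGA beads, using membranes of CHO-K1 cells expressing the receptor, in 50 mmol/l Tris-HCl with 0.05% azide and 0.06% BSA; 90 min at room temperature. Non-specific binding defined with 25 μmol/l naloxone. Value is % inhibition of specific binding at 1 μmol/l test compound.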

T1 sequence (P35372 whole entry): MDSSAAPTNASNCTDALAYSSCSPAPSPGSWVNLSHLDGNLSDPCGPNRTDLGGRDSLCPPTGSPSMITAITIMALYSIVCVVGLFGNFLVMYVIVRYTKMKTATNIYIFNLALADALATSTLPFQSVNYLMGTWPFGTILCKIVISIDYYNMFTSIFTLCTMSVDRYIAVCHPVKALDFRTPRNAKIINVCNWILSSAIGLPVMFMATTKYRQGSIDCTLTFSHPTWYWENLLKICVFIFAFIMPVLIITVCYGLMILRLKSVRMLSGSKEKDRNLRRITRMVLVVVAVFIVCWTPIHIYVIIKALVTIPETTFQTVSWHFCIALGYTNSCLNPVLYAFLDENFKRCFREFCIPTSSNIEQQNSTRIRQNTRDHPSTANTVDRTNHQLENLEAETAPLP

Row | SMILES | inhibition at 1 µM
1 | CN(C)C(c1cccs1)C1CCC(C(c2nc(Cc3ccccc3)c(N3CCCC3)o2)N2CCc3ccccc3C2)CC1 (stereo not shown) [compound 146, ({4-[(4-benzyl-5-pyrrolidin-1-yl-oxazol-2-yl)-(3,4-dihydro-1H-isoquinolin-2-yl)-methyl]-cyclohexyl}-thiophen-2-yl-methyl)-dimethylamine] | 92%
2 | COc1ccc(N2CCN(c3oc(C(C4CCC(C(c5cccs5)N(C)C)CC4)N4CCc5ccccc5C4)nc3Cc3ccccc3)CC2)cc1 (stereo not shown) [compound 147, ({4-[{4-benzyl-5-[4-(4-methoxyphenyl)-piperazin-1-yl]-oxazol-2-yl}-(3,4-dihydro-1H-isoquinolin-2-yl)-methyl]-cyclohexyl}-thiophen-2-yl-methyl)-dimethylamine] | 91%
3 | CC1CN(c2oc(C(C3CCC(C(c4cccs4)N(C)C)CC3)N3CCc4ccccc4C3)nc2Cc2ccccc2)CC(C)O1 (stereo not shown) [compound 148, ({4-[[4-benzyl-5-(2,6-dimethylmorpholin-4-yl)-oxazol-2-yl]-(3,4-dihydro-1H-isoquinolin-2-yl)-methyl]-cyclohexyl}-thiophen-2-yl-methyl)-dimethylamine] | 84%
4 | CN(C)C(c1cccc(F)c1)C1CCC(CC(c2nc(Cc3ccccc3)c(N3CCCC3)o2)N2CCOCC2)CC1 (stereo not shown) [compound 149, [{4-[2-(4-benzyl-5-pyrrolidin-1-yl-oxazol-2-yl)-2-morpholin-4-yl-ethyl]-cyclohexyl}-(3-fluorophenyl)-methyl]-dimethylamine] | 87%
5 | CN(C)C(c1cccc(F)c1)C1CCC(CC(c2nc(Cc3ccccc3)c(N3CCOCC3)o2)N2CCOCC2)CC1 (stereo not shown) [compound 150, [{4-[2-(4-benzyl-5-morpholin-4-yl-oxazol-2-yl)-2-morpholin-4-yl-ethyl]-cyclohexyl}-(3-fluorophenyl)-methyl]-dimethylamine] | 75%
6 | COc1ccc(N2CCN(c3oc(C(CC4CCC(C(c5cccc(F)c5)N(C)C)CC4)N4CCOCC4)nc3Cc3ccccc3)CC2)cc1 (stereo not shown) [compound 151, [[4-(2-{4-benzyl-5-[4-(4-methoxyphenyl)-piperazin-1-yl]-oxazol-2-yl}-2-morpholin-4-yl-ethyl)-cyclohexyl]-(3-fluorophenyl)-methyl]-dimethylamine] | 89%
7 | CC1CN(c2oc(C(CC3CCC(C(c4cccc(F)c4)N(C)C)CC3)N3CCOCC3)nc2Cc2ccccc2)CC(C)O1 (stereo not shown) [compound 152, [(4-{2-[4-benzyl-5-(2,6-dimethylmorpholin-4-yl)-oxazol-2-yl]-2-morpholin-4-yl-ethyl}-cyclohexyl)-(3-fluorophenyl)-methyl]-dimethylamine] | 65%
8 | CC1CN(c2oc(C(CC3CCC(C(c4cccc(F)c4)N(C)C)CC3)N3CCN(c4ccc(F)cc4)CC3)nc2Cc2ccccc2)CC(C)O1 (stereo not shown) [compound 153, [(4-{2-[4-benzyl-5-(2,6-dimethylmorpholin-4-yl)-oxazol-2-yl]-2-[4-(4-fluorophenyl)-piperazin-1-yl]-ethyl}-cyclohexyl)-(3-fluorophenyl)-methyl]-dimethylamine] | 71%
9 | COc1ccc(N2CCN(C(CC3CCC(C(c4cccc(F)c4)N(C)C)CC3)c3nc(Cc4ccccc4)c(N4CCOCC4)o3)CC2)cc1 (stereo not shown) [compound 154, [(4-{2-(4-benzyl-5-morpholin-4-yl-oxazol-2-yl)-2-[4-(4-methoxy-phenyl)-piperazin-1-yl]-ethyl}-cyclohexyl)-(3-fluorophenyl)-methyl]-dimethylamine] | 86%
10 | COc1ccc(N2CCN(c3oc(C(CC4CCC(C(c5cccc(F)c5)N(C)C)CC4)N4CCN(c5ccc(OC)cc5)CC4)nc3Cc3ccccc3)CC2)cc1 (stereo not shown) [compound 155, [(4-{2-{4-benzyl-5-[4-(4-methoxyphenyl)-piperazin-1-yl]-oxazol-2-yl}-2-[4-(4-methoxyphenyl)-piperazin-1-yl]-ethyl}-cyclohexyl)-(3-fluorophenyl)-methyl]-dimethylamine] | 82%
